“And” between values parts separate entries of the source, which are not always exact repeats. Equal entries are not always repeated. “Also recorded” adds a separate entry of the source. Where two headings read alike, the source gives them in different places.
Legend:
MAO-A = molecular target: T1, MAO-A (Rattus norvegicus, UniProt P21396); assay: In vitro MAO-A inhibition assay (rat brain mitochondria, serotonin substrate); assay type: biochemical; details: for IC50: rat brain mitochondria, serotonin substrate, mean ± SEM, triplicate
T1 construct: employing crude rat brain mitochondrial suspension; from tissue; host or cells: brain mitochondria of adult Wistar rats
T1 sequence (P21396 1-526): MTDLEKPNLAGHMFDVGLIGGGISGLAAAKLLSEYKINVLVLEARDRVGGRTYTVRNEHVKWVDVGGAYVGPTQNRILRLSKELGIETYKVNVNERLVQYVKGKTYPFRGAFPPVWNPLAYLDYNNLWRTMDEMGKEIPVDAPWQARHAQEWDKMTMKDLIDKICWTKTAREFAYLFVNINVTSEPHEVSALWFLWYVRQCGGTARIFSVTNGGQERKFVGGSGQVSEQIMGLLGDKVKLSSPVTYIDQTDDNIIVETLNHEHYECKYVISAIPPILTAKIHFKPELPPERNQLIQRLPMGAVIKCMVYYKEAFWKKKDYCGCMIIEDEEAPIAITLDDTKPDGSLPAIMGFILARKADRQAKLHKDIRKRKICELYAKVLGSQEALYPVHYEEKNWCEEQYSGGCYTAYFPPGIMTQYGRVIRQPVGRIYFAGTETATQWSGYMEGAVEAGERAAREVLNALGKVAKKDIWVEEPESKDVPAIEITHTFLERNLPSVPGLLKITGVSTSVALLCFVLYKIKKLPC
Method: (§1) Rat brain mitochondria were used as a source of MAO isoforms. All operations were carried out at 4 °C[50]. Male and female adult Wistar rats weighing 200–220 g were decapitated. All brains were rapidly removed and homogenised with a Potter–Elvehjem homogeniser in cold 0.32 M sucrose and 50 mM Tris-HCl, pH 8.2 (10:1, v/w). The homogenate was centrifuged twice at 1000 g for 5 min at 4 °C. The resulting supernatant was centrifuged at 20,000 g for 20 min. The mitochondrial pellet obtained was suspended in 100 mM sodium phosphate buffer, pH 7.4 (4:1, v/w), fractionated in plastic vials to 500 µl samples and stored at −80 °C. Before use, mitochondria were diluted with 100 mM sodium phosphate buffer to give a working solution of 0.80 mg of protein per millilitre.
(§2) The experiments were carried out under all the suitable laboratory conditions. […] An aliquot was made to contain mixture of 55 µl mitochondrial suspension (0.80 mg of protein/ml), 90 µl 50 mM Tris-HCl buffer, pH 8.2 and 30 µl solubilising solution (control or inhibitor solution at five different concentrations). The reaction was initiated by adding 25 µl of serotonin (4 mM, substrate for MAO-A) and 25 µl benzylamine (0.1 M, substrate for MAO-B) for the determination of MAO-A and MAO-B activity, respectively. The mixture was incubated at 37 °C for 30 min and the reaction was stopped by the addition of 50 µl of 1 N HCl. The absorbance associated with the production of 5-hydroxyindolacetic acid was measured at 280 nm for the estimation of MAO-A while for MAO-B estimation, the absorbance was measured at 250 nm due to the formation of benzaldehyde. All the assays were performed in triplicate. Control experiments were carried out without inhibitor and blanks were run without mitochondrial suspension.
(§3) Data are expressed as mean ± standard error mean (SEM) of experiments performed in triplicate.
(§4) 0, 15, 30 and 60 min at 37 °C in Tris-HCl buffer (50 mM, pH 8.2). […] The reactions were further incubated at 37 °C for a further 15 min and the residual enzyme activities were measured and the bar graphs were constructed. All measurements were carried out in triplicate and are expressed as mean ± SEM.

MAO-B = molecular target: T2, MAO-B (Rattus norvegicus, UniProt P19643); assay: biochemical; details: for SI (selectivity index for MAO-B): ratio of experimental IC50(MAO-A)/IC50(MAO-B)
T2 construct: employing crude rat brain mitochondrial suspension; from tissue; host or cells: brain mitochondria of adult Wistar rats
T2 sequence (P19643 1-520): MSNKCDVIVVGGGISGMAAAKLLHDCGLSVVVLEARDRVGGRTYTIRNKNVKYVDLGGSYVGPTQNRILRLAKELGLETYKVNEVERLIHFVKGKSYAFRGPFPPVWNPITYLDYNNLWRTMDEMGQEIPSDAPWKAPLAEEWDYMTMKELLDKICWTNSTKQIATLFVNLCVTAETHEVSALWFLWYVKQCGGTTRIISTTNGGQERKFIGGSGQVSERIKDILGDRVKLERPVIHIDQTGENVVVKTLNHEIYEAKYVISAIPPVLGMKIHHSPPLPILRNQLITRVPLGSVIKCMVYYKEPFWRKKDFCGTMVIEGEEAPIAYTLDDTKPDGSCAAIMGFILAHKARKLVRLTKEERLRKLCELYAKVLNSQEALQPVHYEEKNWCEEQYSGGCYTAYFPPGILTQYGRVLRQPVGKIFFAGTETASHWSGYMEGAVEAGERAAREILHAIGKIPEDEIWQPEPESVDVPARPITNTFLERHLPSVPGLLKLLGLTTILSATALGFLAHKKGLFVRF
Method: as §1, §2, §3, §4

equine serum BuChE = molecular target: T3, equine serum BuChE (Equus caballus, UniProt P81908); assay: In vitro BuChE inhibition assay (Ellman's method, equine serum BuChE); assay type: biochemical
T3 construct: equine serum BuChE was used as enzyme; purchased Sigma-Aldrich; host or cells: equine serum
Method: About 30 µl of enzyme sample (AChE) was added to 60 µl of 20 mM sodium phosphate buffer (pH 7.4) and were incubated in the presence of 30 µl of 10 mM DTNB solution with different concentrations of the test compounds. The enzyme reaction was initiated by the addition of 30 µl of 0.8 mM ACTI. The mixtures were incubated for 15 min at 25 °C. […] Control experiments were carried out without inhibitor, and blanks were run without AChE enzyme. All the assays were performed in triplicate. IC50 values were determined using the GraphPad Prism 5.0 (San Diego, CA) and the results were expressed as mean ± SEM.
The BuChE activity was assayed as per the procedure followed for AChE activity except that equine serum BuChE was used as enzyme and butyrylthiocholine iodide (BuTI) was used as substrate.
as §4, with “25” for “37”, “sodium phosphate” for “Tris-HCl”, “(20” for “(50”, “7.4) and DTNB solution (10 mM).” for “8.2).”, “reaction was” for “reactions were”

[1] = read-out: MAO-A In vitro IC50 (µM) ± SEM
[2] = equine serum BuChE, BuTI substrate, mean ± SEM, read-out: BuChE In vitro IC50 (µM) ± SEM
[3] = time-dependent inhibition, pre-incubation 0, 15, 30, 60 min

T3 sequence (P81908 whole entry): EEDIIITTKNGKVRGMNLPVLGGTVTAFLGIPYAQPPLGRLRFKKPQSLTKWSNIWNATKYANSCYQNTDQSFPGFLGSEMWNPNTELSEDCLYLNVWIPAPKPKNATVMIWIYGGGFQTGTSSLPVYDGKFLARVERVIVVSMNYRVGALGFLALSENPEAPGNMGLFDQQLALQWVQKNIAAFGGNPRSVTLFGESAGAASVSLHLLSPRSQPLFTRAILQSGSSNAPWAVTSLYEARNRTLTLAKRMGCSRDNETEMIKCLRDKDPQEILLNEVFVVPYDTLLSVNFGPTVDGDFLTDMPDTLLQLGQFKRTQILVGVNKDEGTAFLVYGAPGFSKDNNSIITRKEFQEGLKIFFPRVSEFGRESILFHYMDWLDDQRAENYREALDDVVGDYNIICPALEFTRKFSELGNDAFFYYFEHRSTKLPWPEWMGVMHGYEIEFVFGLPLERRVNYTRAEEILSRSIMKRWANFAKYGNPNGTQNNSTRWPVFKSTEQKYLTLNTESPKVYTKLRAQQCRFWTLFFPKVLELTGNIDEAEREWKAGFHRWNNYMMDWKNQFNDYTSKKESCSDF

Compound: CC(=NNC(=O)Nc1ncc([N+](=O)[O-])s1)c1ccc(Cl)cc1 [Compound 5, 1-(1-(4-Chlorophenyl)ethylidene)-4-(5-nitrothiazol-2-yl)semicarbazide]
- IC50 (MAO-A; [1]): 4761 ± 10.8 µM
- IC50 (MAO-B): 0.601 ± 0.015 µM
- SI (selectivity index for MAO-B) (MAO-B): 7921.79
- logP (physchem; octanol/water): 2.1
- IC50 (equine serum BuChE; [2]): 0.553 ± 0.038 µM

Compound: CC(=NNC(=O)Nc1ncc([N+](=O)[O-])s1)c1ccc(Br)cc1 [Compound 4, 1-(1-(4-Bromophenyl)ethylidene)-4-(5-nitrothiazol-2-yl)semicarbazide]
- IC50 (MAO-A; [1]): < 100 µM and 70.2 µM
- IC50 (MAO-B): 0.212 ± 0.004 µM
- Ki (MAO-B): 11.7 ± 0.58 µM
- Mode of MAO-B inhibition (MAO-B; Lineweaver–Burk plots, benzylamine): competitive; also recorded: competitively
- SI (selectivity index for MAO-B) (MAO-B): 331.08
- Reversibility of MAO-B inhibition (MAO-B; [3]): reversible
- logP (physchem; octanol/water): 2.2
- IC50 (equine serum BuChE; [2]): 0.499 ± 0.003 µM

Compound: O=C(NN=C(c1ccc(Cl)cc1)c1ccc(Cl)cc1)Nc1ncc([N+](=O)[O-])s1 [Compound 19, 1-(Bis(4-chlorophenyl)methylene)-4-(5-nitrothiazol-2-yl)semicarbazide]
- IC50 (MAO-A; MAO-A In vitro IC50 (µM) ± SEM): > 100 µM and 50700 µM
- IC50 (MAO-B): 1.48 ± 0.063 µM
- MAO-B: fold increase in activity relative to compound 17 (MAO-B; diaryl analogues): ~19.32 fold
- SI (selectivity index for MAO-B) (MAO-B): 34360.43
- logP (physchem): 3.9
- IC50 (equine serum BuChE): 5.72 ± 0.874 µM
- BuChE: fold less active relative to compound 17 (equine serum BuChE; diaryl analogues): ~238 fold

Compound: O=C(NN=C1C(=O)Nc2ccc(Br)cc21)Nc1ncc([N+](=O)[O-])s1 [Compound 21, 1-(5-Bromo-2-oxoindolin-3-ylidene)-4–(5-nitrothiazol-2-yl)semicarbazide]
- Mode of MAO-A inhibition (MAO-A; Lineweaver–Burk plots, serotonin): non-competitively
- Ki (MAO-A; kinetic study, non-competitive model, GraphPad Prism, read-out: Ki (dissociation constant) against MAO-A): 17.3 ± 1.79 µM
- IC50 (MAO-A; [1]): < 100 µM and 57.2 µM
- Reversibility of MAO-A inhibition (MAO-A; [3]): reversible
- IC50 (MAO-B): 0.734 ± 0.006 µM
- SI (selectivity index for MAO-B) (MAO-B): 77.94
- logP (physchem; octanol/water): 1.9
- IC50 (equine serum BuChE; [2]): 5.37 ± 0.278 µM
- BuChE: fold reduction in activity compared to compound 4 (equine serum BuChE; ratio of IC50 values): ~10.75 fold
- BuChE: fold reduction in activity compared to compound 5 (equine serum BuChE; ratio of IC50 values): ~9.7 fold
